Where “and” joins values, the source holds several entries; their conditions need not be identical. Equal entries are not always repeated. Where two headings read alike, the source gives them in different places.
Legend:
[1] = Metabolic stability in hepatic S9 fraction, human; format: in vitro ADME; conditions: 2 μM
Protocol: (§1) Blood plasma and S9 stability was studied as described previously ([8]). In brief, the compounds were incubated at 2 μM in hamster, rat, dog, monkey, or human plasma samples for up to 4 h at 37°C. For S9 stability, the compounds were incubated at 2 μM in hamster, rat, dog, monkey, or human intestinal and hepatic S9 fractions for up to 90 min at 37°C in the presence of NADPH and uridine 5′-diphosphoglucuronic acid trisodium salt (UDPGA) (Sigma-Adrich). The samples were analyzed by liquid chromatography coupled to triple-quadrupole mass spectrometry (LC-MS/MS).
(§2) The data (analyte-to-internal standard peak area ratio) were plotted on a semilog scale and fitted using an exponential fit. The half-life (t1/2) was determined assuming first-order kinetics.

[2] = Metabolic stability in intestinal S9 fraction, hamster; format: in vitro ADME
Protocol: as §1, §2

in vitro = in vitro ADME; conditions: 37°C, read-out: Plasma stability, half-life
Protocol: as §1, §2

[3] = Metabolic stability in hepatic S9 fraction, dog; format: in vitro ADME; conditions: 2 μM
Protocol: as §1, §2

[4] = Metabolic stability in hepatic S9 fraction, rat; format: in vitro ADME; conditions: 2 μM
Protocol: as §1, §2

HCV GT1b replicon = test: HCV GT1b replicon, transiently transfected Huh-1C cells; format: cell-based, hepatitis C virus; conditions: for EC50: Hepatitis C virus, GT1B, 72 h
Protocol: GT1a, GT1b, and GT2a are authentic subgenomic replicons of the indicated strain. Creation of these HCV replicons was reported previously ([7]).
RNA was transcribed in vitro using a MEGAscript […] kit (Ambion, Austin, TX) and transfected into Huh-Lunet and −1C cells using published methods ([21], [22]).
The EC50s, defined as the concentration at which there was a measured 50% decrease in HCV replicon level, were determined in replicon assay as previously described ([24]). Briefly, replicon cells were seeded into 96-well plates. Compounds were serially diluted in DMSO at 200× final concentrations and then added to the assay plate. Luciferase expression was quantified after 3 days of incubation using a commercial luciferase assay (Promega, Madison, WI). Data were analyzed using GraphPad Prism 6.0 (La Jolla, CA).
X represents log of compound concentration and Y represents replicon replication as the percentage of DMSO control. EC50s were calculated as an average from at least three independent experiments.

[5] = Plasma pharmacokinetics in pentagastrin-pretreated portal vein-cannulated dogs; format: in vivo, male beagle dogs; conditions: for bioavailability / AUC(0-t) / Cmax: male, beagle; for bioavailability / Fa (fraction absorbed): oral 5 mg/kg vs 0.5 mg/kg intravenous infusion; for bioavailability: read-out: F (oral bioavailability)
Protocol: Plasma and liver pharmacokinetic studies were completed as described previously ([8]). Briefly, intact Golden Syrian hamsters, Sprague-Dawley rats, and beagle dogs (intact and portal vein cannulated) were orally administered a single dose of GS2 or GS2(R+S) in solution formulations at between 5 and 50 mg/kg of body weight. Similarly, studies were completed by administering GS-6620 or its 1:1 diastereomeric mixture in solution or micronized suspension formulations at between 5 and 21.1 mg/kg. Animal doses were chosen to correspond to surface area-adjusted human doses targeted for clinical development (150 to 500 mg). In order to understand hepatic extraction (EH), fraction absorbed (Fa), and oral bioavailability (F), intravenous (i.v.) and oral (p.o.) studies were conducted with GS2 and GS-6620 in intact and portal vein-cannulated dogs. Intravenous dosing used solution formulations at 0.5 mg/kg of the respective prodrugs. Animals were housed and handled in accordance with the Guide for the Care and Use of Laboratory Animals ([23]). The protocols were reviewed and approved by the Institutional Animal Care and Use Committees (IACUC).
Plasma samples were prepared through protein precipitation extraction by adding acetonitrile to a final concentration of 70% containing internal standard (5-iodotubericidin). Samples were dried completely under a stream of nitrogen at 40°C and reconstituted with 0.2% formic acid in water to 3 times the original volume of plasma for LC-MS/MS analysis. Liver samples were prepared by sectioning into smaller pieces and collecting into preweighed 15-ml conical tubes kept on dry ice. Ice-cold extraction buffer (0.1% KOH and 67 mM EDTA in 70% methanol containing chloro-ATP as an internal standard) was added to ∼0.5 g of each liver sample. The mixtures were promptly homogenized using an Omni-Tip TH with disposable, hard tissue homogenizer probes (Omni International). Aliquots of the homogenate were filtered by using 0.2-μm 96-well polypropylene filter plates (Varian Captiva). The filtrates were evaporated to dryness and reconstituted with an equal volume of 1 mM ammonium phosphate buffer (pH 7) prior to LC-MS/MS analysis. Plasma and liver samples were analyzed on a Sciex API-4000 (Applied Biosystems, Foster City, CA) LC-MS/MS instrument. Analytes in plasma samples were separated on a 4-μm, 150- by 2-mm Synergi Max-RP column (Phenomenex, Torrance, CA) using a mobile phase containing 0.2% formic acid and a linear gradient from 2% to 100% acetonitrile at a flow rate of 250 μl/min over 7 min. Analytes in liver samples were separated using a 50- by 2-mm by 2.5-μm Luna C18(2) HST column (Phenomenex, Torrance, CA). A multistage linear gradient from 10% (mobile phase A) to 50% acetonitrile (mobile phase B) in a mobile phase containing 3 mM ammonium formate (pH 5.0) with 10 mM dimethylhexylamine at a flow rate of 0.15 ml/min was used to elute the analytes.
Noncompartmental pharmacokinetic parameters were calculated using WinNonlin 5.01 (Pharsight Corporation, Mountain View, CA). Equations for calculating hepatic extraction (EH; equation 2), fraction absorbed (Fa; equation 3), and oral bioavailability (F; equation 4) have been presented previously ([25]). (2) EH=AUCPO,portal vein−AUCPO,jugular vein/AUCPO,portal vein (3) Fa=F/1−EH (4) F=AUCPO,jugular vein÷DosePO/AUCIV÷DoseIV

[6] = Metabolic stability in intestinal S9 fraction, rat; format: in vitro ADME
Protocol: as §1, §2

[7] = Metabolic stability in intestinal S9 fraction, monkey; format: in vitro ADME; conditions: monkey (cynomolgus)
Protocol: as §1, §2

[8] = Metabolic stability in intestinal S9 fraction, dog; format: in vitro ADME
Protocol: as §1, §2

[9] = Metabolic stability in intestinal S9 fraction, human; format: in vitro ADME; conditions: for half-life at 2 μM: intestinal S9 fraction
Protocol: as §1, §2

[10] = dog, plasma (jugular vein), oral 5 mg/kg, GS2 in solution, GS-6620 in suspension of micronized material, read-out: AUC0–t jugular
[11] = dog, plasma (jugular vein), oral 5 mg/kg, GS2 in solution, GS-6620 in suspension of micronized material, read-out: Cmax jugular
[12] = dog, plasma (portal vein), oral 5 mg/kg, GS2 in solution, GS-6620 in suspension of micronized material, read-out: AUC0–t portal
[13] = dog, plasma (portal vein), oral 5 mg/kg, GS2 in solution, GS-6620 in suspension of micronized material, read-out: Cmax portal
[14] = dog, plasma, 0.5-mg/kg intravenous infusion (30 min), n = 3, read-out: AUC0–t following intravenous infusion

| SMILES | Metabolic stability in hepatic S9 fraction, predicted hepatic extraction [1] [%] | half-life at 2 μM [2] [h] | half-life at 2 μM (in vitro; dog plasma) [h] | half-life at 2 μM (in vitro; hamster plasma) [h] | half-life at 2 μM (in vitro; human plasma) [h] | half-life at 2 μM (in vitro; monkey (cynomolgus) plasma) [h] | half-life at 2 μM (in vitro; rat plasma) [h] | Metabolic stability in hepatic S9 fraction, predicted hepatic extraction [3] [%] | Metabolic stability in hepatic S9 fraction, predicted hepatic extraction [4] [%] | EC50 (HCV GT1b replicon) [nM] | bioavailability ([5]; dog, plasma (jugular vein)) [%] | AUC(0-t) [5, 10] [µM·h] | Cmax [5, 11] [nM] | AUC(0-t) [5, 12] [µM·h] | Cmax [5, 13] [nM] | AUC(0-t) [5, 14] [µM·h] | EH (hepatic extraction) ([5]; oral 5 mg/kg) [%] | Fa (fraction absorbed) [5] | half-life at 2 μM [6] [h] | half-life at 2 μM [7] [h] | further results |
| --- | --- | --- | --- | --- | --- | --- | --- | --- | --- | --- | --- | --- | --- | --- | --- | --- | --- | --- | --- | --- | --- |
| CC(C)OC(=O)C(C)(C)N[P@](=O)(OC[C@H]1O[C@@](C#N)(c2ccc3c(N)ncnn23)[C@](C)(O)[C@@H]1O)Oc1ccccc1 [GS2] | 87 | 1.12 | > 10 | > 10 | > 10 | > 10 | 0.0833 | 42 | 86 | 110 ± 20 | 13 | 0.44 ± 0.09 | 430 ± 90 | 1.77 ± 0.26 | 1610 ± 350 | 0.34 | 75 | 51.6% and 52% | 2.83 | 3.83 | Fold (GS2/GS-6620) (HCV GT1b replicon; EC50 ratio, GT1b, Huh-1C): 3.1; Fa in dog higher than corresponding L-alanine-containing prodrug ([5]; dog, in vivo): more than 5 fold; maximal portal concentration lower than GS-6620 ([5]; oral 5 mg/kg): approximately 2 fold; half-life at 2 μM [8]: 9.17 h; stability in human intestinal S9 greater than GS-6620 [9]: 35 fold; half-life at 2 μM [9]: 9.5 h |
| CC(C)OC(=O)[C@H](C)N[P@](=O)(OC[C@H]1O[C@@](C#N)(c2ccc3c(N)ncnn23)[C@](C)(O)[C@@H]1OC(=O)C(C)C)Oc1ccccc1 [GS-6620, reference compound] | 93 | < 0.0333 | 7.17 | 2 | 6.17 | 1.33 | < 0.0333 | 73 | 97 | 35 ± 15 | 15 | 0.33 ± 0.28 | 620 ± 430 | 1.68 ± 0.8 | 3650 ± 860 | 0.2 | 80 | 79% | 0.147 | 0.0933 | time by which plasma concentration decreased to undetectable ([5]; oral 5 mg/kg, postdose): ≤ 2 h; half-life at 2 μM [8]: 0.55 h; half-life at 2 μM [9]: 0.283 h |

Source: paper PMC6105845, “Nucleotide Prodrug Containing a Nonproteinogenic Amino Acid To Improve Oral Delivery of a Hepatitis C Virus Treatment” (Antimicrobial Agents and Chemotherapy, 2018)
